Laboratory results published in ChEMBL document CHEMBL3390832 (Medchemcomm, 2011).
pEC50, pKi: −log10 of the molar value.

Legend:
Glutamate NMDA receptor = assay: Displacement of [3H]CGP-39653 from NMDA receptor in rat brain cortical membranes; type: cell membranes
[1] = target: T1, Metabotropic glutamate receptor 3 (Homo sapiens, UniProt Q14832); assay: Agonist activity at human mGluR3 receptor expressed in HEK cells; type: cell-based, HEK293
[2] = target: T1, Metabotropic glutamate receptor 3; assay: Binding affinity to human mGluR3 receptor expressed in HEK cells; type: cell-based, HEK293
[3] = target: T2, G-protein coupled receptor family C group 6 member A (Mus musculus, UniProt Q8K4Z6); assay: Agonist activity at mouse GPRC6A expressed in human tsA201 cells coexpressing GalphaqG66D after 30 mins by inositol phosphate turnover assay; type: functional, cell-based
T2 sequence (Q8K4Z6 whole entry): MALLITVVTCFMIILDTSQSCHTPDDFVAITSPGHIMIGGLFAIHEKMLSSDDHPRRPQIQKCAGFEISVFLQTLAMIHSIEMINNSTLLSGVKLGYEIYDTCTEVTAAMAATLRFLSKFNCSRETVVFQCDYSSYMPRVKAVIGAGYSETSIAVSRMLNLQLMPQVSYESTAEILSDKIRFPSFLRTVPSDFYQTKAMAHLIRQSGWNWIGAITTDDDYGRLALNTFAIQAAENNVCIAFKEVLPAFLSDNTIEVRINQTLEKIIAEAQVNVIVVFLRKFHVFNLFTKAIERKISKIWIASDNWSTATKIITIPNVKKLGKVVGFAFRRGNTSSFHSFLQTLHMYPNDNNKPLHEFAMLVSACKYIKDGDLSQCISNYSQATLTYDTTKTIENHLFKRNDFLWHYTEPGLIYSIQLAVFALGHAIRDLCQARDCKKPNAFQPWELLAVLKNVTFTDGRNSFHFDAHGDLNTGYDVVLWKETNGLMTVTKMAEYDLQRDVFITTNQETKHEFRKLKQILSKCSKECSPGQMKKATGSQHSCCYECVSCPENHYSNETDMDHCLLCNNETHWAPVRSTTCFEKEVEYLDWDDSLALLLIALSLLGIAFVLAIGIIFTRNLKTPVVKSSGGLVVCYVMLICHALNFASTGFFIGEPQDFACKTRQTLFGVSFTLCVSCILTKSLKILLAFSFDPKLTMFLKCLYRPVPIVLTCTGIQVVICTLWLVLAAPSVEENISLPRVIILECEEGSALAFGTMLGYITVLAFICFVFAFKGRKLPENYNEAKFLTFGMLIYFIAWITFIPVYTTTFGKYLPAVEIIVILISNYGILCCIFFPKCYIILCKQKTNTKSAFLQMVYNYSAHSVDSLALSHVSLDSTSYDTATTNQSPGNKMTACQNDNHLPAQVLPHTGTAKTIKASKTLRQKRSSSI

[4] = target: T3, Metabotropic glutamate receptor 7 (Homo sapiens, UniProt Q14831); assay: Agonist activity at human mGluR7 receptor expressed in HEK cells; type: cell-based, HEK293
T3 sequence (Q14831 whole entry): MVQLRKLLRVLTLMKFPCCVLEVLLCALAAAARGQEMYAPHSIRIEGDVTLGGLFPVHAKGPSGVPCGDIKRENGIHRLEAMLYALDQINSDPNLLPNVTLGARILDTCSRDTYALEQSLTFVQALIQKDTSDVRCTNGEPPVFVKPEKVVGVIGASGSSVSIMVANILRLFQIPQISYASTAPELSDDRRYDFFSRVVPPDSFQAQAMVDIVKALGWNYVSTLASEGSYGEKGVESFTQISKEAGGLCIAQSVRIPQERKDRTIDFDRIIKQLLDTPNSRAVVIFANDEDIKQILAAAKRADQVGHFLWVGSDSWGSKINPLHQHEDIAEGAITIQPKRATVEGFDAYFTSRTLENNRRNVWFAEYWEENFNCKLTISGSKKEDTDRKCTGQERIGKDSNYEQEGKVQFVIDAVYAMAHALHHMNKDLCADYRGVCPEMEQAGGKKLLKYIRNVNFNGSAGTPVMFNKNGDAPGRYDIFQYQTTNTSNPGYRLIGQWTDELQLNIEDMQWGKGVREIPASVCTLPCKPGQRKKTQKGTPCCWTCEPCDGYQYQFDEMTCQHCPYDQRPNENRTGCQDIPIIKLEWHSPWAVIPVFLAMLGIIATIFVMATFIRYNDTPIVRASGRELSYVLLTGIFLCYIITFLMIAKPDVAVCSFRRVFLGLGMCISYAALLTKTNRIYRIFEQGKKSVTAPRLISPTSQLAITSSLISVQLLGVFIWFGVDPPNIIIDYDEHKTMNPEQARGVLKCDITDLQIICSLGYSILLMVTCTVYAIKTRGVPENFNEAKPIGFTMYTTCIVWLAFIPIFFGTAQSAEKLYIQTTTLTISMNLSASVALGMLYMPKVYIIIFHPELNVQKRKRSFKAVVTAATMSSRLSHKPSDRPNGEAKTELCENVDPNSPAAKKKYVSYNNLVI

[5] = target: T3, Metabotropic glutamate receptor 7; assay: Binding affinity to human mGluR7 receptor expressed in HEK cells; type: cell-based, HEK293

T1 sequence (Q14832 whole entry): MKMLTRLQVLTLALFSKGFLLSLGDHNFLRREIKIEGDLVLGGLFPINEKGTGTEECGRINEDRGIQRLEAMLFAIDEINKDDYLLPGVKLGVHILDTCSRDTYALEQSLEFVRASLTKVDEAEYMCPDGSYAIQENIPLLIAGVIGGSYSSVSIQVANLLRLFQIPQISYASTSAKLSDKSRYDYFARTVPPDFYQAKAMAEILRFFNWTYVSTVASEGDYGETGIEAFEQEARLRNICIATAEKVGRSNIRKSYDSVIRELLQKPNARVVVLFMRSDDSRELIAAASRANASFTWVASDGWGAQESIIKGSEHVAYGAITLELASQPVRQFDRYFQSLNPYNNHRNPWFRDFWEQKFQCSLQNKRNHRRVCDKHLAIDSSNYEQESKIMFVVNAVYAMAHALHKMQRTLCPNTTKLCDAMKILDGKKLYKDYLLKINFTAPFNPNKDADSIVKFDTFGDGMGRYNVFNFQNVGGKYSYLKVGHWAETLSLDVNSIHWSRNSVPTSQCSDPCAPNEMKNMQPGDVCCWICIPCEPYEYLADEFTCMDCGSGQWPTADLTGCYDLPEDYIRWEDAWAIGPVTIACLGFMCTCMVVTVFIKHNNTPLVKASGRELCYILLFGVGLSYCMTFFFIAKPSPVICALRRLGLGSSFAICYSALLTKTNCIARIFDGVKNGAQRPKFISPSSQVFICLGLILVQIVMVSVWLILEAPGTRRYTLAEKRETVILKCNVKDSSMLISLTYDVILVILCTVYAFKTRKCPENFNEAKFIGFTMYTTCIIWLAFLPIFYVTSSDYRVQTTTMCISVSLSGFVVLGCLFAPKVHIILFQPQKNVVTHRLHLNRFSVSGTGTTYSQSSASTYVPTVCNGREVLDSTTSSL

SMILES | pKi (Glutamate NMDA receptor) | pEC50 [1] | also measured
N[C@H](CCc1nsnc1O)C(=O)O | < 4.00 |  | 
N=C(N)NCCC[C@H](N)C(=O)O [ARGININE] |  |  | pEC50 [3]: 3.55
N[C@@H](CCC(=O)O)C(=O)O [GLUTAMIC ACID] |  | 7.22 | pEC50 [4]: 2.93; pKi [5]: 2.93; pKi [2]: 7.24

Continued, in another order:

pKi (Glutamate NMDA receptor) | pEC50 [1] | SMILES | also measured
< 4.00 |  | N[C@@H](CCc1nsnc1O)C(=O)O | 
4.11 | 3.70 | N[C@@]1(C(=O)O)C[C@@H]1CC(=O)O (relative stereo) | pKi [2]: 3.70
4.14 | < 3.00 | N[C@@]1(C(=O)O)C[C@H]1CC(=O)O (relative stereo) | 
4.72 |  | N[C@]1(C(=O)O)C[C@H]1Cc1nsnc1O (relative stereo) | 
